From US20250018019A1, “TREATMENT OF INTERFERON DRIVEN INFLAMMATION” (The Provost, Fellows, Foundation Scholars and the other …, priority 2023, published 2025)

B1: IFN-β: recombinant mouse IFN-β1 used to stimulate BMDMs (protein, UniProt P01575 22-182, looked up)
Interferon beta: INYKQLQLQERTNIRKCQELLEQLNGKINLTYRADFKIPMEMTEKMQKSYTAFAIQEMLQNVFLVFRNNFSSTGWNETIVVRLLDELHQQTVFLKTVLEEKQEERLTWEMSSTALHLKSYYWRVQRYLKLMKYNSYAWMVVRAEIFRNFLIIRRLTRNFQN

What was measured:
Assay type in all cases: cell-based, mouse
[1] = system: BMDMs; experiment: Flow cytometry, CellROX and TMRM staining; conditions: BMDMs pre-treated, LPS 4 h; oligomycin 10 μM, CCCP 50 μM, valinomycin 10 nM, MMF 50 or 100 μM
Protocol: (§1) All compounds used DMSO as a vehicle except for 4-hydroxy tamoxifen (EtOH), NAC (PBS), and AOAA for tracing experiments (Media). LPS was used at a concentration of 100 ng/ml for indicated timepoints (2, 3, 4, 6, 8, 24, 48 h). FHIN1 (10 or 20 μM), MMF (50 or 100 μM), DMF (25 μM), AOAA (5 mM), oligomycin (10 μM), CCCP (50 μM) NAC (1 mM), and IMT1 (10 μM) pre-treatments were performed for 3 h prior the addition of LPS. Cells were treated with valinomycin (10 nM) 15 mins before LPS stimulation. Anti-CD210 or IgG control (10 μg/ml) antibodies were added to cells 1 h prior to LPS stimulation. Recombinant mouse IL-10 protein (100 ng/ml) was added to cells at the same time as LPS. Cells were treated with IFN-B1 (220 ng/ml) for 3 h. Cells were treated with C-178 (1 μM) 1 h prior to LPS stimulation or transfection with 2′3′-cGAMP (1.5 μg/ml) for 4 hrs to achieve cGAS-STING activation. Cells were treated with ODN 2088 (1 μM) for 1 hr prior to LPS stimulation or transfection with CPG ODN 1826 (1.5 μg/ml) to achieve TLR9 activation. 3 different timepoints of 4-hydroxy tamoxifen (TAM) (600 nM or 2 μM) or EtOH treatment were performed-these are specified in the individual figure legends. For ‘48 h’ treatments EtOH/TAM was added on day 5 of 6 during the BMDM differentiation protocol. On day 6 they were plated with EtOH/TAM (left overnight) and treated the following day. For ‘72 h’ treatments EtOH/TAM was added on day […] of 6 during the BMDM differentiation protocol. On day 6 they were plated with EtOH/TAM (left overnight) and treated the following day. For ‘96 h’ treatments EtOH/TAM was added on day […] of 6 during the BMDM differentiation protocol. On day 6 they were plated with EtOH/TAM and treated 2 days later.
Cells were plated in 12-well plates and treated as desired. CellROX Green (5 μM, Thermo Fisher) or TMRM (20 nM, Thermo Fisher) was added to cells 30 mins prior to end of cell treatments. Cells were washed once in PBS and scraped into 200 μl FACS buffer (2 mM EDTA, 0.5% FCS in PBS). Acquisition of samples was performed on a BD Accuri C6 flow cytometer. The gating strategy used for all flow cytometry experiments consisted of debris exclusion by FSC-A vs SSC-A analysis and subsequent doublet exclusion by FSC-A vs FSC-H analysis. A sample gating strategy is provided in Supplementary FIG. 2. 10,000 cells was acquired per condition. Mean fluorescence intensity (MFI) was calculated for all cells in each condition using FlowJo v10.

[2] = system: BMDMs; experiment: ELISA of cytokine release from BMDMs; conditions: LPS 4 h; for LPS-induced IFN-β release: BMDMs pre-treated
Protocol: as §1
(§2) Pre-designed silencer select siRNAs for Cgas (s103166), Tmem173 (s91058), Tlr3 (s100579), Tlr9 (s96268), As/(s99640), Tlr7 (s100720), Ddx58 (s106376), Ifih1 (s89787), Nrf2 (s70522), Atf4 (s62689) and negative control (4390843) were ordered from Thermo Fisher. siRNA sequences are given in Table S2. Cells were transfected with 50 nM siRNA using 5 μl lipofectamine RNAiMAX according to manufacturer's instructions (Thermo Fisher). Cells were transfected in medium without serum and antibiotics which was replaced with complete medium 8 hours later. Cells were subsequently left for at least a further 12 hours prior to treatment.
BMDMs were plated in the presence or absence of ultrapure ethidium bromide (100 ng/ml) and incubated for a further 6 days prior to treatment. Depletion of mtDNA was determined by genomic DNA isolation followed by qPCR using primers specific for areas of mitochondrial DNA (D-loop) and areas of mtDNA that are not inserted into nuclear DNA (Non-NUMT).
DuoSet ELISA kits for IL-1β, TNFα, IL-6, IL-10, and GDF15 were purchased from R&D Systems and were carried out according to the manufacturer's instructions with appropriately diluted cell supernatants added to each plate in duplicate or triplicate. IFN-β was determined using DuoSet ELISA kit from R&D Systems or Abcam (ab252363). Quantikine ELISA kit for IFN-β (R&D Systems) was used for determination of IFN-β concentration in serum samples and from human cells, and these were also carried out according to the manufacturer's instructions. Absorbance at 450 nm was quantified using a FLUOstar Optima plate reader. Corrected absorbance values were calculated by subtracting the background absorbance, and cytokine concentrations were subsequently obtained by extrapolation from a standard curve plotted on GraphPad Prism 9.2.0.

[3] = system: BMDMs; experiment: Digitonin fractionation, qPCR of mtDNA and mtRNA
Protocol: as §1
BMDMs were plated at 0.5×10^6 cells/well and treated as desired. After treatment, cells were washed once with room temperature PBS, before being scraped on ice into ice cold PBS and pelleted at 500×g for 5 mins at 4° C. Supernatant was removed and discarded, and the pellet was resuspended in 400 μl extraction buffer (150 mM NaCl, 50 mM HEPES pH 7.4, 25 μg/ml digitonin). Samples were then placed in a rotating mixer at 4° C. for 10 mins before centrifugation at 2000×g at 4° C. for 5 mins. The resulting supernatant constituted the cytosolic fraction, from which RNA and DNA were isolated using an AllPrep DNA/RNA Mini Kit (Qiagen). Alternatively, the cytosolic fraction was concentrated using Strataclean Resin (Agilent) and analysed by western blot. The pellet constituted a fraction containing membrane-bound organelles which was lysed in RNA lysis buffer for RNA isolation or lysed in western blot lysis buffer for analysis by western blot. To determine the presence of mtRNA and mtDNA in the cytosol, qPCR was performed using primers specific for mitochondrial D-loop on cDNA which had been reverse-transcribed from RNA isolated from the cytosolic fraction (mtRNA) and on DNA isolated from the cytosolic fraction (mtDNA). In both cases, values were normalised using a housekeeping control gene (β-actin) amplified in cDNA which had been reverse-transcribed from RNA isolated from the membrane-bound fraction.

[4] = system: BMDMs; experiment: RT-qPCR gene expression in BMDMs
Protocol: as §1
RNA extraction from cells was carried out using a Purelink™ RNA kit (Invitrogen) according to the manufacturer's instructions. BMDMs were treated as required, and following treatment were instantly lysed in 350 μl RNA lysis buffer. Isolated RNA was quantified using a NanoDrop 2000 spectrophotometer, and RNA concentration was normalised to the lowest concentration across all samples with RNAse-free water. If necessary, samples were DNAse-treated after quantification using DNAse I (Thermo Fisher) according to the manufacturer's instructions. Isolated RNA samples were normalised and converted into cDNA using the High-Capacity cDNA Reverse Transcription Kit (Thermo Fisher) according to manufacturer's instructions. 10 μl of RNA (at a maximum concentration of 100 ng/μl) was added to 10 μl of reverse transcription master mix to complete the reaction mixture. Real-time quantitative PCR was performed on the cDNA generated in the previous step, using primers designed in-house and ordered from Eurofins Genomics, as detailed in Table S2. The reaction was performed in a 96-well qPCR plate by a 7500 Fast Real-Time PCR machine (Thermo Fisher). Relative expression (2^−ΔΔCT) was calculated from the CT values for each sample and gene of interest.
as §2

[5] = system: BMDMs; experiment: Immunofluorescence, Mitotracker Red and dsRNA; conditions: BMDMs pre-treated, relative to DMSO control, LPS 4 h
Protocol: as §1
Cells were plated on 20 mm cover slips in 12-well plates. Cells were treated as required and Mitotracker Red CMXRos (100 nM, Thermo Fisher), was added to medium 30 mins prior to end of cell treatments. After 30 min incubation, cells were washed three times with warm PBS. Cells were subsequently fixed for 10 mins with 4% paraformaldehyde/PBS at 37° C. Cells were washed three times with PBS and permeabilized for 1 hour in block solution (1% BSA, 22.52 mg/ml glycine, 0.1% tween 20 in PBS). Anti-dsRNA antibody (Merck) was diluted 1/60 in block solution and incubated with cells overnight at room temperature. Cells were washed three times with PBS for 5 mins/wash. […] Images were analysed using the LAS X Life Science Microscope Software Platform (Leica). The same microscope instrument settings were used for all samples and all images were analysed using the same settings. […] Quantification of dsRNA or Mitotracker Red CMXRos signal intensity was performed using the measure function in ImageJ 1.53t (NIH).

Row | Molecule | mitochondrial membrane potential (MMP), TMRM staining [1] | LPS-induced IFN-β release [2] | dsRNA accumulation (immunofluorescence) [5] | also measured
1 | N#CC(C#N)=NNc1cccc(Cl)c1 [CCCP] | significantly dissipated | boosted |  | 
2 | Cc1ccccc1-c1cc(=O)oc2cc(OC(C)C(=O)N(C)C)ccc12 (centres unmarked) [IMT1] |  |  |  | effect on the FHIN1-mediated boost in IFN-β release ([2]; BMDMs co-treated with FHIN1 and IMT1 10 μM): abrogated; effect on the increase in mtRNA with FHIN1 (cytosolic and whole cell fraction) ([3]; BMDMs co-treated with FHIN1 and IMT1 10 μM, LPS 4 h): inhibited in both
3 | CC(=O)N[C@@H](CS)C(=O)O [NAC, N-acetyl cysteine] |  |  |  | suppression of Il10 by FHIN1 and DMF ([4]; BMDMs, NAC 1 mM together with FHIN1 or DMF, LPS 4 h): abrogated
4 | CC[C@H]1/C=C/C=C/C[C@@H](C)[C@H](O)[C@@](C)(O)C(=O)[C@@H](C)[C@H](O)[C@@H](C)C(=O)[C@@H](C)[C@H](O)[C@@H](C)/C=C/C(=O)O[C@@H]2[C@H](C)[C@H](CC1)O[C@]1(CC[C@H](C)[C@H](C[C@@H](C)O)O1)[C@H]2C [oligomycin A, Oligomycin A] | boosted | boosted | accumulation of dsRNA to a similar extent to that observed in cells treated with FHIN1 | mtDNA in cytosolic extracts (D-loop) ([3]; digitonin-fractionated BMDMs): increase; mtRNA in cytosolic extracts ([3]; digitonin-fractionated BMDMs): increased
5 | CC(C)[C@@H]1NC(=O)[C@H](C)OC(=O)[C@@H](C(C)C)NC(=O)[C@@H](C(C)C)OC(=O)[C@H](C(C)C)NC(=O)[C@H](C)OC(=O)[C@@H](C(C)C)NC(=O)[C@@H](C(C)C)OC(=O)[C@H](C(C)C)NC(=O)[C@H](C)OC(=O)[C@@H](C(C)C)NC(=O)[C@@H](C(C)C)OC1=O [valinomycin A, valinomycin] | non-significantly reduced | boosted | similarly drove dsRNA accumulation | 
6 | B1 |  |  |  | Fh1 expression ([4]; IFN-β-stimulated BMDMs (220 ng/ml, 3 h)): inhibited
